Results as given in article PMC12590356, “Novel pyrrolo[2,1-a]isoquinoline aryl ketones attenuate carbon nanotube-induced acute lung injury through NF-κB pathway inhibition” (RSC Advances, 2025).
Entries after “also recorded” stand apart in the source; their conditions may differ.

Assays:
TNF-α [1] = test: TNF-α secretion in LPS-stimulated RAW264.7 macrophages (ELISA); type: cell-based, murine; conditions: Mus musculus, LPS (0.5 μg/mL)-stimulated RAW264.7 cells, 24 h, read-out: IC50 for TNF-α inhibition
Protocol: (§1) To elucidate the anti-inflammatory mechanisms underlying 3g and 3k, we conducted a comprehensive investigation into their impact on the secretion of pro-inflammatory cytokines, employing an LPS-stimulated RAW264.7 macrophage model. TNF-α and IL-6, which serve as pivotal mediators in the pathogenesis of ALI, are primarily secreted by activated alveolar macrophages, neutrophils, and lung structural cells. […] In this study, RAW264.7 cells were treated with LPS (0.5 μg mL^−1) and varying concentrations of 3g or 3k for 24 hours. […] This mechanistic understanding provides robust support for the therapeutic potential of the novel diaryl ketone scaffold in the ALI management.
(§2) Fig. 2 Compounds 3g and 3k inhibited the cytokine production of RAW264.7 cells stimulated by LPS. […] The levels of IL-6 (A) and TNF-α (B) in the culture medium were measured by ELISA kits. Data are expressed as mean ± SEM for each group of independent experiments (n = 3); *p < 0.05; **p < 0.01; ***p < 0.001 vs. model group.
(§3) Based on the initial screening results, compounds 3g and 3k were selected for further experimentation. […] The levels of TNF-α and IL-6 released into the macrophage supernatant were quantified using ELISA kits sourced from Elabscience (Wuhan, China), according to the manufacturer's guidelines.

IL-6 [2] = test: IL-6 secretion in LPS-stimulated RAW264.7 macrophages (ELISA); type: cell-based, murine; conditions: LPS (0.5 μg/mL)-stimulated RAW264.7 cells, 5, 20, 40 μM, 24 h
Protocol: as §1, §2, §3

TNF-α [3] = test: TNF-α in BALF of ALI mice (ELISA); type: in vivo, C57BL/6 mice; conditions: SWCNT-induced ALI mice, 50 mg per kg dose
Protocol: (§4) To confirm the in vivo inhibitory effects of 3g and 3k, we examined the levels of pro-inflammatory cytokines in bronchoalveolar lavage fluid (BALF) from ALI mice.
(§5) Based on the results of the previous in vitro experiments, 3g and 3k were chosen for animal experiments. 3g was dissolved in 5% DMSO and 3k was dissolved in 0.5% sodium carboxymethyl cellulose (CMC-Na). Male C57BL/6 mice were randomly divided into four groups of ten animals each: CON, single-walled carbon nanotubes (SWCNT) model, 3k (50 mg kg^−1) + SWCNT, 3g (50 mg kg^−1) + SWCNT. The SWCNT model group was administered a one-time tracheal drip of 50 μL of SWCNT suspension containing 40 μg of SWCNT (approximately 1.86 mg per kg body weight) per mouse to model ALI. A blank tracheal drip of PBS was administered to the negative control. 3k + SWCNT and 3g + SWCNT groups were administered 3k or 3g of 50 mg per kg body weight once a day for 3d. The animals in the CON group received the same volume of 0.5% CMC-Na. The 1st dose was administered 1 h before modeling to avoid excessive damage to mice. The control and model groups were injected intraperitoneally with a blank solvent. […]
(§6) The collected bronchoalveolar lavage fluid (BALF) was centrifuged to obtain the supernatant. The concentrations of TNF-α and IL-6 in BALF were determined using ELISA. […]

IL-6 [4] = test: IL-6 in BALF of ALI mice (ELISA); type: in vivo, C57BL/6 mice; conditions: SWCNT-induced ALI mice, 50 mg per kg dose
Protocol: as §4, §5, §6

NF-κB p65 = test: Immunofluorescence of NF-κB p65 in lung tissues; type: in vivo, C57BL/6 mice; conditions: SWCNT-induced ALI mice, 50 mg/kg once a day for 3 d
Source text: To elucidate the mechanism underlying the modulation of NF-κB pathway, we employed immunofluorescence techniques to scrutinize the spatiotemporal dynamics of NF-κB p65 within lung tissues. The canonical NF-κB signaling cascade involves IκB kinase (IKK)-mediated phosphorylation of IκBα, triggering its ubiquitination and proteasomal degradation. This process releases the NF-κB p65/p50 heterodimer, enabling its nuclear translocation and subsequent initiation of pro-inflammatory mediator transcription.[35,36] […] This finding implies a pharmacological activity that is contingent upon the structural characteristics of the compounds.
(§7) Based on the results of the previous in vitro experiments, 3g and 3k were chosen for animal experiments. 3g was dissolved in 5% DMSO and 3k was dissolved in 0.5% sodium carboxymethyl cellulose (CMC-Na). Male C57BL/6 mice were randomly divided into four groups of ten animals each: CON, single-walled carbon nanotubes (SWCNT) model, 3k (50 mg kg^−1) + SWCNT, 3g (50 mg kg^−1) + SWCNT. The SWCNT model group was administered a one-time tracheal drip of 50 μL of SWCNT suspension containing 40 μg of SWCNT (approximately 1.86 mg per kg body weight) per mouse to model ALI. […]
Mouse lung tissues were isolated and stored in a 4% paraformaldehyde solution. […] Representative images of each sample were acquired (magnification ×200) and analyzed using the ImageJ software. […]

[5] = test system: phosphorylated IκB and p65; test: Western blot of NF-κB pathway in lung tissues; type: in vivo, C57BL/6 mice; conditions: SWCNT-induced ALI mice, 50 mg/kg once a day for 3 d
Source text: The expression levels of phosphorylated IκB and p65 were meticulously examined. To further delve into and evaluate the impact of compounds 3g and 3k on the NF-κB signaling pathway within SWCNT-induced ALI murine models, western blotting analysis was used to comprehensively assess the activation status of the NF-κB pathway in lung tissues.
Collectively, novel pyrrolo[2,1-a]isoquinoline aryl ketones represent promising anti-inflammatory candidates for SWCNT-induced pulmonary injury, functioning through NF-κB pathway regulation.
as §7
Lung tissue samples were collected from each mouse. […] The protein concentration was accurately determined using the BCA method. […] ECL chemiluminescent reagent was used to visualize the protein bands, and the gray values of the bands were analyzed using ImageJ software.

Row | SMILES | IC50 (TNF-α [1]) [µM] | IL-6 secretion (IL-6 [2]) | TNF-α level in BALF (TNF-α [3]) | IL-6 level in BALF (IL-6 [4]) | p65 fluorescence intensity and nuclear translocation in lung tissue (NF-κB p65; 50 mg/kg) | Phosphorylated IκB and p65 levels in lung tissue [5] | p65 fluorescence intensity and nuclear translocation in lung tissue (NF-κB p65)
1 | O=C(c1ccc(F)cc1)c1ccc2c3ccccc3ccn12 [3g] | 7.85 | suppressed cytokine secretion in a dose-dependent manner | effectively suppressed the release of TNF-α | effectively suppressed the release of TNF-α and IL-6 | reduced fluorescence intensity and suppressed nuclear translocation of p65; also recorded: significantly enhanced efficacy in inhibiting he nuclear translocation of p65 | substantially suppressed these phosphorylation events | 
2 | Cc1ccccc1C(=O)c1ccc2c3ccccc3ccn12 [3k] | 8.3 | suppressed cytokine secretion in a dose-dependent manner | effectively suppressed the release of TNF-α | effectively suppressed the release of TNF-α and IL-6 |  | substantially suppressed these phosphorylation events | reduced fluorescence intensity and suppressed nuclear translocation of p65
